From ChEMBL document CHEMBL6153038, “Uncovering Hericenones from the Fruiting Bodies of Hericium erinaceus through Interdisciplinary Collaboration” (J Nat Prod, 2025)

Assays:
N2a [1] = assay: Neuroprotective activity against thapsigargin-induced ER stress in mouse Neuro2a cells assessed as cell viability at 10 to 100 ug/ml pre-incubated for 2 hrs followed by thapsigargin addition for 22 hrs by MTT assay; type: functional, cell-based; conditions: dose 10-100 µg/ml, time 24.0 hrs
N2a [2] = assay: Neuroprotective activity against tunicamycin-induced ER stress in mouse Neuro2a cells assessed as cell viability at 10 to 100 ug/ml pre-incubated for 2 hrs followed by tunicamycin addition for 22 hrs by MTT assay; type: functional, cell-based; conditions: dose 10-100 µg/ml, time 24.0 hrs

Structure (SMILES) | Activity (N2a [1]) | Activity (N2a [2])
CCCCCCCCCCCCCCCC(=O)OCc1cc(OC)c2c(c1C=O)OC(/C(C)=C/C(=O)C=C(C)C)C2 (racemic) | Active; Significant Protective Activity | Active; Significant Protective Activity
CCCCCCCCCCCCCCCC(=O)OCc1cc(OC)c2c(c1C=O)OC(/C(C)=C\C(=O)C=C(C)C)C2 (racemic) | Active; Significant Protective Activity | Active; Significant Protective Activity
CCCCCCCCCCCCCCCC(=O)OCc1cc(OC)c(C[C@H]2O[C@]2(C)CC(=O)C=C(C)C)c(O)c1C=O (racemic) | Not active; No Protective Activity | Not active; No Protective Activity
